Measured values: patent publication US20240245647A1, “ISOMEROHYDROLASE INHIBITOR FOR TREATMENT OF ATROPHIC FORM OF AGE-RELATED MACULAR DEGENERATION AND STARGARDT DISEASE” (The Trustees of Columbia University in the City of New York, priority 2021, published 2024)

How the values were obtained:
retina = assay: Light-induced retinal damage (LIRD); type: in vivo, BALB/c mice; details: 2 mg/kg, 10,000 lux 3 hr, 5 days post-LIRD
Protocol: FIG. 5. LIRD caused the degeneration in the retina and RPE, which was rescued by inhibitor at the dose of 2 mg/kg in BALB/c mice. (FIG. 5A) Representative histological analysis for the retinas of RPE65-61 injected mice 5 days post-LIRD. Retinal cross-sections of No LIRD Control, LIRD+Vehicle, and LIRD+inhibitor RPE65-61 from three groups were stained with H&E for morphological comparison, 40× magnification. (FIG. 5B) Representative OCT images of mice treated with RPE65-61. […] RPE: retinal pigment epithelium; IS: inner segment; OS: outer segment; ONL: outer nuclear layer; OPL: outer plexiform layer; INL: inner nuclear layer; IPL: inner plexiform layer; RNFL: retinal nerve fiber layer. Bars represent mean±SEM. with n=8 per group. Student's t-test. *P<0.05, **<0.01 and ***<0.001, ****<0.0001.
FIG. 6. […] (FIGS. 6A-B) Shown are representative images of the Western blot detection of rhodopsin protein expression and the correlating quantifications. (FIGS. 6C-D) Cone density was evaluated by immunofluorescence, representative confocal images of immunofluorescence labeling with Peanut Agglutinin Lectin (PNA) and the correlating quantifications, 40× magnification. […]
Mice were dark-adapted overnight with food and water ad libitum. […] The mice were returned to regular housing for 5 days and then the retinal damage was assessed. […]

[1] = Sequestration of all-trans-retinal (atRAL) in vitro; details: 100 μM compound, equimolar atRAL, 30 min
Protocol: Test compounds (100 μM) were incubated with equimolar amounts of all-trans-retinal for 30 min. The UV-vis spectra were collected and the concentration of all-trans-retinal was assessed based on the 370 nm absorbance. (FIG. 11A) Graph bars show mean atRAL levels normalized to DMSO; error bars show SD; one-way ANOVA with Holm-Sidak post-hoc test was used for statistical analysis; *P<0.05; ****P<0.0001.

VAP-1 = target: T1, VAP-1 (Homo sapiens, UniProt Q16853); assay: in vitro; details: both, plasma, pH 7.4
T1 sequence (Q16853 29-763 limits assumed): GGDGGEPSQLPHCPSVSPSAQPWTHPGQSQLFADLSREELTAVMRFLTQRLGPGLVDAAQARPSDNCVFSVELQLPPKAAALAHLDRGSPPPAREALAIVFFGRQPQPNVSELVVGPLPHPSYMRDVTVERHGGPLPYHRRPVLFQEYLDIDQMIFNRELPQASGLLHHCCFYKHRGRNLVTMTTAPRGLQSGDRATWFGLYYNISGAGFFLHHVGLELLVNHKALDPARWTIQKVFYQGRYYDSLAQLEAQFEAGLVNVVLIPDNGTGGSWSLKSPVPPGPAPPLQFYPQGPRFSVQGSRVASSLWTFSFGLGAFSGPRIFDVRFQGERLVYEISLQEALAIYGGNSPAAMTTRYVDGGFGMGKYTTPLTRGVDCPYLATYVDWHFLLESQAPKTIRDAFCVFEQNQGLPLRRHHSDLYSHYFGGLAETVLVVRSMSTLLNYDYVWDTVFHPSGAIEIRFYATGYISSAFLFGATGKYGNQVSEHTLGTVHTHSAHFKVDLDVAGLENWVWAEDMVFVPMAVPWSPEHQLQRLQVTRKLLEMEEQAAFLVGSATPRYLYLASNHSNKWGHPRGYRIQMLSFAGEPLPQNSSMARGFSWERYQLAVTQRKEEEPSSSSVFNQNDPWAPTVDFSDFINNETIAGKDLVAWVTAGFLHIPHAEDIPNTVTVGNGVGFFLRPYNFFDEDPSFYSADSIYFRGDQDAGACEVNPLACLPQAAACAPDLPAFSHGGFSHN
Protocol: Studies were carried out in mixed-gender human plasma (Lot #HMN330460) and male Beagle dog plasma (Lot #BGL118112), obtained from BioIVT and collected on sodium heparin. Plasma was adjusted to pH 7.4 prior to initiating the experiments. DMSO stocks were first prepared for the test articles. Aliquots of the DMSO solutions were dosed into 1 mL of plasma, which had been pre-warmed to 37° C., at a final test article concentration of 1 μM. The vials were kept in a benchtop Thermomixer® for the duration of the experiment. Aliquots (100 μL) were taken at each time point (0, 15, 30, 60, and 120 minutes) and added to 96-well plates, which had been pre-filled with 300 μL of acetonitrile (ACN). Samples were stored at 4° C. until the end of the experiment. After the final time point was sampled, the plate was mixed and then centrifuged at 3,000 rpm for 10 minutes. Aliquots of the supernatant were removed, diluted 1:1 into distilled water, and analyzed by LC-MS/MS. The peak area response ratio to internal standard (PARR) was compared to the PARR at time 0 to determine the percent of test article remaining at each time point. Half-lives were calculated using GraphPad software, fitting to a single-phase exponential decay equation.

**Q.** Which “effect against LIRD (histology, ERG)” value (retina) does the source give for N=S(=O)(CCN)c1cccc(OCC2CCCCC2)c1 (racemic) [RPE65-61, (±)-(2-aminoethyl) (3-(cyclohexylmethoxy)phenyl) (imino)-λ^6-sulfanone] here?
**A.** protective effect

**Q.** What about the atRAL reduction [1] of the same compound?
**A.** 80%

**Q.** And the half-life at 1 μM (VAP-1)?
**A.** > 2 h
